Reference: patent US11045519B2, “Arginine-rich polypeptide compositions and methods of using same” (UNM Rainforest Innovations, priority 2017, dated 2021)
Where a SMILES comes first, the peptide text is derived from it. Where no end group is shown, it is not given here. The star is where a group is joined. Decanoyl = CCCCCCCCCC(=O)*; CH2Cl = ClC*

Experiments:
recombinant His-furin = target: T1, recombinant His-furin (Homo sapiens, UniProt P09958); experiment: Furin cleavage of HPV16 L2 capsid protein (immunoblot); format: biochemical; conditions: 30 μM, 3 nM His-furin, 2 h 37° C.
T1 construct: His
T1 sequence (P09958 108-794): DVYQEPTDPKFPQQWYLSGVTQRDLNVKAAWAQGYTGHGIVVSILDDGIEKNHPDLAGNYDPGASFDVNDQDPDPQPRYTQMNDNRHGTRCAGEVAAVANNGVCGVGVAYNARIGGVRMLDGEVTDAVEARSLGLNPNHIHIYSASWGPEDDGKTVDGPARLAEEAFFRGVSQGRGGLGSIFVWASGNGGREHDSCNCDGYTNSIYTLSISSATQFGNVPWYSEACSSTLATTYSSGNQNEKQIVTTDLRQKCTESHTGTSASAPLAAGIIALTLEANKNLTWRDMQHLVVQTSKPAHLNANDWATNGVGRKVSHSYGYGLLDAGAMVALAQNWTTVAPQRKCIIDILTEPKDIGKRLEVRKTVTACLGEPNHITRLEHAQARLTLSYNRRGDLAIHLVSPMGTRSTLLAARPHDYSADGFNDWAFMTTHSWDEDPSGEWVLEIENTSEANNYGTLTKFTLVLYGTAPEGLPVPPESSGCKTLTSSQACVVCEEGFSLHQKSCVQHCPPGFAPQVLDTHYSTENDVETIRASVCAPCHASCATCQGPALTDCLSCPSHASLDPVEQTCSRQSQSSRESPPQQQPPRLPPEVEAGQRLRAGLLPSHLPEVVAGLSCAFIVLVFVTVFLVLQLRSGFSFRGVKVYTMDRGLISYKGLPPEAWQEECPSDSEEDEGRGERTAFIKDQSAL
Procedure: FIG. 9. PolyR inhibits HPV16 L2 protein cleavage by furin and induces accumulation of internalized virus particles in late endosomal fraction. (A) Equal amount of HPV16 diluted in 50 μl furin assay buffer (1 mM CaCl2), 100 mM HEPES, 0.5% Triton X-100, 1 mM β-mercaptoethanol) was loaded into six tubes, […], in the presence of 1.3 μM furin inhibitor1 (Merck Millipore Corp., Burlington, Mass.), or 1 μM polyR. Samples were mixed with SDS-PAGE sample buffer and boiled before fractionation on 9% gel. Proteins were transferred onto PVDF membranes and after blocking, incubated with affinity-purified rabbit anti-HPV16 polyclonal antibody. Secondary donkey anti-rabbit horseradish peroxidase-coupled antibody was used for detection of HPV16 capsid proteins. (B) HaCaT cells grown on coverslips were incubated with HPV16 PsVs for one hour at 37° C. to initiate virus binding (and partial internalization) before adding 1 μM polyR and further incubated for seven hours. […]
Cleavage of the L2 minor capsid protein by the cellular pro-protein convertase, furin, is an essential step in infectious entry of HPVs. […] After two hours of incubation, HPV16 cleavage was assessed by immunoblotting using anti-HPV 16 polyclonal antibody. […]

HPV16 PsVs [1] = experiment: Dissociation of cell-bound HPV16 PsVs from HaCaT cells (L1 immunoblot); format: cell-based; conditions: 5 μM added to HPV-bound HaCaT cells, 1 h 4° C.
Procedure: (§1) (A) HPV16 PsVs were bound to HaCaT cells (one hour at 4° C.), before the addition of […]. After a one-hour incubation at 4° C., unbound virus was washed out, cells were lysed and analyzed for the content of HPV L1 protein. (B) HaCaT cells were exposed to HPV 16 PsV at 4° C. in the absence of polyR, simultaneously with polyR (0 h), or one hour after polyR treatment (+1 h). After extensive washing with PBS, cells were lysed and analyzed for the content of HPV16 L1 protein.
FIG. 19. […] HPV16 PsVs were bound to HaCaT cells (one hour in cold), before the addition of 5 μM PrS. After a one-hour incubation at 4° C., unbound virus was washed out, cells were lysed, and HPV L1 protein content was measured as described in FIG. 16.
To determine whether polyR could cause HPV16 dissociation from cells, HPV16 PsVs were bound to HaCaT cells for one hour at 4° C. After washing away unbound virus, HPV-bound cells were incubated with 3 μM polyR for one hour at 4° C.; control cells were untreated. Cells were lysed and analyzed for HPV L1 protein content. […]
The post-attachment inhibitory effects of PrS could be due the displacement of capsids from the cell surface. […] After a one-hour incubation at 4° C., unbound virus was washed out, cells were lysed, and the HPV L1 protein content was analyzed.

HPV16 PsVs [2] = experiment: HPV16 PsV binding to HaCaT cells at 4° C. (L1 immunoblot / immunofluorescence); format: cell-based; conditions: 4° C. 1 h
Procedure: FIG. 4. PolyR treatment of host cells inhibits HPV16 binding to cells. (A) Confluent HaCaT cell monolayers were treated with 1 μM polyR (in CM) for 30 minutes, before adding 100 vge/cell HPV16 PsVs, and incubated at 4° C. for one hour (to promote binding but prevent virus internalization). After washing out of unbound virus, cells were lysed (25 mM Tris pH7.5, 150 mM NaCl, 1% Triton-X100 supplemented with protease inhibitors) and centrifuged at 16,000×g for 10 minutes. Protein concentrations in supernatant were measured using the Bradford method (Bio-Rad Laboratories, Inc., Hercules, Calif.). Samples were boiled in SDS-containing sample buffer, and aliquots containing equal amount of protein ([…] to 200 μg) separated by SDS-polyacrylamide gel electrophoresis (SDS-PAGE), using 10% gel. Proteins were transferred onto polyvinylidene difluoride (PVDF) membranes and subjected to analysis using anti-HPV16 L1 primary antibody (Camvir-1, sc-47699, Santa Cruz Biotechnology, Inc., Dallas, Tex.;1:5000 dilution) for detection of HPV16 major capsid protein, L1. Proteins were visualized by enhanced chemiluminescence (SUPERSIGNAL West Pico Chemiluminescent Substrate, Thermo Fisher Scientific, Inc., Waltham, Mass.) and exposed to film (Phenix Research Products, Candler, N.C.). (B) Immunofluorescence assays were performed essentially as described previously (Surviladze et al., 2012. PLoS Pathogens 8:e1002519). HaCaT cells were grown on coverslips at approximately 50% confluence and treated with 3 μM polyR for 30 minutes at 37° C. before the addition of 1000 vge of HPV16 PsVs per coverslip. Cells were incubated for one hour at 4° C. and washed several times with PBS, before the fixation with 4% paraformaldehyde (PFA). BSA-blocked cells were incubated with rabbit polyclonal HPV16 antibody (antibody was affinity-purified from rabbit anti-HPV VLP antisera). PBS-washed slides were incubated with donkey AF488-conjugated anti-rabbit IgG secondary antibody; phalloidin-rhodamine (Cytoskeleton, Inc., Denver, Colo.) was used for actin staining. After extensive washing with PBS, cells were mounted in Gold Antifade and immunofluorescent (IF) images were captured by confocal photo-microscopy.
as §1
FIG. 16. PrS pretreated cells binding of HPV16. Confluent HaCaT cell monolayers were treated with 1 μM PrS (in CM) before the addition of 200 vge/cell HPV16 PsVs and incubated at 4° C. for one hour (conditions to prevent virus internalization). After washing out of unbound virus, cells were lysed (25 mM Tris pH7.5, 150 mM NaCl, 1% Triton-X100 supplemented with protease inhibitors) and centrifuged at 16,000×g for 10 minutes. Protein concentrations in supernatant were measured using the Bradford method (Bio-Rad Laboratories, Inc., Hercules, Calif.). Samples were boiled in SDS-containing sample buffer, and aliquots containing equal amount of protein (˜50 μg to 200 μg) separated by SDS-polyacrylamide gel electrophoresis (SDS-PAGE) using 10% gel. […]

HPV16 PsVs [3] = experiment: Direct pre-incubation of HPV16 PsVs with peptide, dilution below IC50, then infection of HaCaT cells; format: cell-based; conditions: 1 μM, 1 h 37° C., diluted below IC50, HaCaT cells 24 h
Procedure: FIG. 3. […] HPV16 PsVs were incubated with 0.3 μM polyR for one hour at 37° C. The virus-polyR mixture was diluted with CM to reduce the polyR concentration below the IC50 value prior to incubation with HaCaT cells for 24 hours (HPV16-polyR). The control included untreated HPV16 PsVs (HPV16) added to HaCaT cells. Infection was measured after 24-hour incubation.
FIG. 15. Direct interaction of PrS to HPV16 PsVs. HPV16 PsVs were incubated with 1 μM PrS or HA:PrS complex for one hour at 37° C. Virus-PrS/or HA:PrS mixture was diluted with CM in order to reduce the PrS concentration below the IC50 value, and incubated with HaCaT cells for 24 hours. The control included untreated HPV16 PsVs. Infection was measured after 24 hours incubation as described in FIG. 12.
Typically, direct interaction of cationic inhibitors with the viral capsids of non-enveloped viruses (including HPV) is sufficient for antiviral activity. To determine whether polyR inhibited HPV16 infectivity by direct interaction with viral capsids, HPV16 PsVs were incubated with […] for one hour at 37° C. The virus-polyR mixture was diluted 1500-fold to reduce the polyR concentration below the IC50 value, then incubated with HaCaT cells. The control included cells exposed to HPV PsVs that were not treated with polyR. […]

[4] = system: HPV16 pseudovirions (PsVs); experiment: HPV16 PsV luciferase infectivity assay, HaCaT cells pretreated with peptide; format: cell-based; conditions: 24 h; for inhibition of HPV16 PsV infection: 6 μM, 30 min pretreatment of HaCaT cells, 300 vge/cell
Procedure: HaCaT cells were cultured in complete growing medium (CM; Dulbecco's modified Eagle's medium nutrient mixture F-12 HAM (Sigma-Aldrich, St. Louis, Mo.)) supplemented with 10% fetal bovine serum (FBS), amino acids (Sigma-Aldrich, St. Louis, Mo.), 2 mM L-glutamine, 100 U/ml penicillin and 1 μg/ml streptomycin (Sigma-Aldrich, St. Louis, Mo.), as previously described (Patterson et al., 2005. J Virol 79:6838-6847). Semi-confluent cells were pretreated for 30 minutes with arginine-rich peptides dissolved in CM (6 μM gp91dstat, gp91dstat (scramble), R9, and TAT, or 3 polyR) before the exposure to HaCaT cells and 300 vge/cell HPV16 pseudovirions (PsVs) packaging a luciferase reporter plasmid. Infectivity was scored after 24 hours of incubation at 37° C. (i.e., post infection) by Lumat LB9501 (Berthold Technologies GmbH & Co KG, Bad Wildbad, Germany) equipment, using the luciferase assay kit (Promega, Madison, Wis.) according to manufacturer's specification. Raw data were normalized to total cellular protein concentration. Graph summarizes triplicate treatments; error bars represent SEM.
Fifty percent inhibitory concentration (IC50) of HPV16 PsV infection of HaCaT cells by the compounds. For generation of an inhibitory concentration 50 (IC50) curves, cells were pretreated with the indicated concentration of arginine-rich peptides prior to HPV16 PsV exposure. Infectivity was scored after 24 hours of incubation at 37° C. and the data from two independent duplicate experiments were pooled and analyzed using non-linear regression (curve fit) function of PRISM software (GraphPad Software, Inc., LaJolla, Calif.).
Semi-confluent HaCaT cells maintained in CM, were pretreated for one hour with PrS dissolved in CM at the 0-5.8 μM concentrations before exposure to HPV16 PsVs (350 vge/cell). Infectivity was scored after 24 hours of incubation at 37° C. using a luminometer (Lumat LB9501, Berthold GmbH & Co., Bad Wildbad, Germany) and luciferase assay (Promega, Madison, Wis.) according to manufacturer's specification. Raw data were normalized to total cellular protein concentration.
For generation of an inhibitory concentration 50 (IC50) curve for PrS inhibition, data from two independent duplicate experiments was pooled and analyzed using the non-linear regression (curve fit) function of PRISM (GraphPad Software, Inc., La Jolla, Calif.).
3 μM PrS incubated for one hour at room temperature with 2 mg/ml high or low molecular weight HA in CM, prior to the addition to HaCaT cells. 350 vge/cell HPV16 PsVs were used for infection of cells in the presence or absence of PrS or HA:PrS complex. Infection was scored after 24 hours as described in FIG. 12.
HaCaT cells were pretreated with 6 μM concentrations of gp91dstat, gp91dstat (scramble), R9, or TAT, or 3 μM polyR. After 30 minutes of incubation at 37° C., cells were infected with HPV16 pseudovirions (PsVs) at a dose of 300 viral genome equivalents (vge)/cell, and the relative infectivity was quantified after 24 hours compared to infection in untreated cells (FIG. 1). Each treatment was performed in triplicate.
To evaluate the anti-HPV activity of PrS, HaCaT cells, a keratinocyte-derived cell line, was used as a model for analysis of HPV infection. […]
Infections were initiated using Luciferase-expressing HPV16 PsVs that were produced, isolated, and quantified as described previously (Surviladze et al., 2012. PLoS Pathogens 8: e1002519; Campos S K and Ozbun M A, 2009. PloS One 4:e4463). […]

`CCCCCCCCCC(=O)N[C@@H](CCCN=C(N)N)C(=O)N[C@H](C(=O)N[C@@H](CCCCN)C(=O)N[C@@H](CCCN=C(N)N)C(=O)CCl)C(C)C` [FI, reference compound] (Decanoyl-RVKR-CH2Cl) was tested, and the “furin cleavage of L2 capsid protein” value (recombinant His-furin) was “inhibited cleavage of the L2 capsid protein”.
For “protamine sulfate (MPRRRRSSSRPVRRRRRPRVSRRRRRRGGRRRR; also: sulfate salt; listed as Oncorhynchus keta) [PrS, sulfate form of salmon protamine, FDA approved arginine-rich polypeptide, reference compound]”, the “release of HPV16 from membrane” value (HPV16 PsVs [1]) was “did not induce HPV16 release from membrane”, the “HPV16 binding to pretreated cells (L1 Western blot)” value (HPV16 PsVs [2]; 1 μM in CM, 200 vge/cell) was “almost completely blocked HPV16 binding” and the “inhibition of HPV16 binding at acidic conditions” value (HPV16 PsVs [2]; pH 4.5, 2 μM PrS (complex: 0.1% HMW HA:2 μM PrS)) was 60%. The “effect of pre-incubation of HPV16 PsVs on infection” value (HPV16 PsVs [3]) was “does not inhibit infection” and the IC50 ([4]; 1 h pretreatment, 350 vge/cell, read-out: IC50 of HPV16 infection in HaCaT cells) was roughly 100 nM.
In the case of `N=C(N)NCCC[C@H](NC(=O)[C@H](CCCNC(=N)N)NC(=O)[C@H](CCCNC(=N)N)NC(=O)[C@H](CCCNC(=N)N)NC(=O)[C@H](CCCNC(=N)N)NC(=O)[C@H](CCCNC(=N)N)NC(=O)[C@H](CCCNC(=N)N)NC(=O)[C@H](CCCNC(=N)N)NC(=O)[C@@H](N)CCCNC(=N)N)C(=O)O` [R9, arginine nonapeptide], the “inhibition of HPV16 PsV infection” value [4] is reported as 66%.
With “TAT: YGRKKRRQRRR; arginine-rich fragment of the HIV transactivator protein” the “inhibition of HPV16 PsV infection” value [4] was 44%.
